Laboratory results from ChEMBL document CHEMBL1201862, “PubChem BioAssay data set” (2004).
Where “and” joins values, the source holds several entries; their conditions need not be identical. Equal entries are not always repeated.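 Protocol summary: plate cells (96-well), add compound at 5 concentrations, incubate 48 h, interpolate endpoints linearly. Abbreviation: GI50, concentration required for 50% inhibition of growth.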 Calls of active or inactive are those of the source. Rule as the data show it: active = GI50 up to about 1.1 µM and inactive = higher.

Tests used:
Test in all cases: NCI anticancer screen, dose series, 48 h
786-0 = system: 786-0
A498 = system: A498
ACHN = system: ACHN
BT-549 = system: BT-549
CAKI-1 = system: CAKI-1
CCRF-CEM = system: CCRF-CEM
HCC 2998 = system: HCC 2998
HCT-116 = system: HCT-116
HCT-15 = system: HCT-15
HL-60 = system: HL-60
HOP-92 = system: HOP-92
HT-29 = system: HT-29
Hs-578T = system: Hs-578T
LOX IMVI = system: LOX IMVI
MCF7 = system: MCF7
NCI-H460 = system: NCI-H460
NCI/ADR-RES = system: NCI/ADR-RES
SK-MEL-2 = system: SK-MEL-2
SR = system: SR
SW-620 = system: SW-620
T47D = system: T47D
U-251 = system: U-251
A549 = system: A549
COLO 205 = system: COLO 205
DU-145 = system: DU-145
EKVX = system: EKVX
HOP-62 = system: HOP-62
IGROV-1 = system: IGROV-1
K562 = system: K562
KM12 = system: KM12
M14 = system: M14
MDA-MB-231 = system: MDA-MB-231
MDA-MB-435 = system: MDA-MB-435
MDA-N = system: MDA-N
MOLT-4 = system: MOLT-4
NCI-H226 = system: NCI-H226
NCI-H23 = system: NCI-H23
OVCAR-3 = system: OVCAR-3
OVCAR-4 = system: OVCAR-4
OVCAR-5 = system: OVCAR-5
OVCAR-8 = system: OVCAR-8
PC-3 = system: PC-3
RXF 393 = system: RXF 393
SF-268 = system: SF-268
SF-295 = system: SF-295
SF-539 = system: SF-539
SK-MEL-28 = system: SK-MEL-28
SK-MEL-5 = system: SK-MEL-5
SK-OV-3 = system: SK-OV-3
SN12C = system: SN12C
SNB-19 = system: SNB-19
SNB-75 = system: SNB-75
TK-10 = system: TK-10
UACC-257 = system: UACC-257
UO-31 = system: UO-31
Malme-3M = system: Malme-3M
NCI-H522 = system: NCI-H522
RPMI-8226 = system: RPMI-8226
UACC-62 = system: UACC-62

Question: Which results are given for CC(=O)NC1(C(=O)N[C@@H](Cc2ccccc2)C(=O)NC2CCCCC2)Cc2ccc3ccccc3c2-c2c(ccc3ccccc23)C1?
Answer: GI50 (786-0): 8.95 µM (inactive) and 8.73 µM (inactive); GI50 (A498): 14.6 µM (inactive) and 21.2 µM (inactive); GI50 (ACHN): 4.06 µM (inactive) and 7.73 µM (inactive); GI50 (BT-549): 8.97 µM (inactive) and 15.2 µM (inactive); GI50 (CAKI-1): 26.7 µM (inactive) and 15.6 µM (inactive); GI50 (CCRF-CEM): 5.18 µM (inactive) and 3.47 µM (inactive); GI50 (HCC 2998): 6.73 µM (inactive) and 4.54 µM (inactive); GI50 (HCT-116): 4.48 µM (inactive) and 6.7 µM (inactive); GI50 (HCT-15): 6.61 µM and 3.9 µM; GI50 (HL-60): 5.02 µM (inactive) and 3.49 µM (inactive); GI50 (HOP-92): 48.6 µM (inactive) and 32 µM (inactive); GI50 (HT-29): 6.37 µM (inactive) and 4.84 µM (inactive); GI50 (Hs-578T): > 100 µM (inactive); GI50 (LOX IMVI): 53.2 µM (inactive) and 50.5 µM (inactive); GI50 (MCF7): 3.03 µM (inactive) and 5.48 µM (inactive); GI50 (NCI-H460): 6.17 µM (inactive) and 3.41 µM (inactive); GI50 (NCI/ADR-RES): 3.94 µM (inactive) and 6.82 µM (inactive); GI50 (SK-MEL-2): 15.3 µM (inactive) and 7.89 µM (inactive); GI50 (SR): 14.7 µM (inactive) and 12.6 µM (inactive); GI50 (SW-620): 17.8 µM (inactive) and 25.3 µM (inactive); GI50 (T47D): 4.55 µM (inactive) and 5.27 µM (inactive); GI50 (U-251): 9.53 µM (inactive) and 5.89 µM (inactive)

Question: How did the GI50 (786-0) turn out when Sc1nnc(CCCCCCCCc2nnc(S)o2)o1 was run?
Answer: > 100 µM (inactive)

Question: And the GI50 (A498)?
Answer: > 100 µM (inactive)

Question: What about the GI50 (A549) of the same molecule?
Answer: > 100 µM (inactive)

Question: What about the GI50 (ACHN) of the same molecule?
Answer: > 100 µM (inactive)

Question: And the GI50 (BT-549)?
Answer: > 100 µM (inactive)

Question: And the GI50 (CAKI-1)?
Answer: > 100 µM (inactive)

Question: And the GI50 (CCRF-CEM)?
Answer: > 100 µM (inactive)

Question: And the GI50 (COLO 205)?
Answer: > 100 µM (inactive)

Question: And the GI50 (DU-145)?
Answer: > 100 µM (inactive)

Question: And the GI50 (EKVX)?
Answer: > 100 µM (inactive)

Question: And the GI50 (HCT-116)?
Answer: > 100 µM (inactive)

Question: And the GI50 (HCT-15)?
Answer: > 100 µM

Question: And the GI50 (HL-60)?
Answer: > 100 µM (inactive)

Question: And the GI50 (HOP-62)?
Answer: > 100 µM (inactive)

Question: What about the GI50 (HT-29) of the same molecule?
Answer: > 100 µM (inactive)

Question: What about the GI50 (IGROV-1) of the same molecule?
Answer: > 100 µM (inactive)

Question: What about the GI50 (K562) of the same molecule?
Answer: > 100 µM (inactive)

Question: And the GI50 (KM12)?
Answer: > 100 µM (inactive)

Question: And the GI50 (LOX IMVI)?
Answer: > 100 µM (inactive)

Question: And the GI50 (M14)?
Answer: > 100 µM (inactive)

Question: And the GI50 (MCF7)?
Answer: > 100 µM (inactive)

Question: What about the GI50 (MDA-MB-231) of the same molecule?
Answer: > 100 µM (inactive)

Question: And the GI50 (MDA-MB-435)?
Answer: > 100 µM (inactive)

Question: And the GI50 (MDA-N)?
Answer: > 100 µM (inactive)

Question: What about the GI50 (MOLT-4) of the same molecule?
Answer: > 100 µM (inactive)

Question: And the GI50 (NCI-H226)?
Answer: > 100 µM (inactive)

Question: What about the GI50 (NCI-H23) of the same molecule?
Answer: > 100 µM (inactive)

Question: What about the GI50 (NCI-H460) of the same molecule?
Answer: > 100 µM (inactive)

Question: What about the GI50 (NCI/ADR-RES) of the same molecule?
Answer: > 100 µM (inactive)

Question: What about the GI50 (OVCAR-3) of the same molecule?
Answer: > 100 µM (inactive)

Question: And the GI50 (OVCAR-4)?
Answer: > 100 µM (inactive)

Question: And the GI50 (OVCAR-5)?
Answer: > 100 µM (inactive)

Question: And the GI50 (OVCAR-8)?
Answer: > 100 µM (inactive)

Question: What about the GI50 (PC-3) of the same molecule?
Answer: > 100 µM (inactive)

Question: And the GI50 (RXF 393)?
Answer: > 100 µM (inactive)

Question: What about the GI50 (SF-268) of the same molecule?
Answer: > 100 µM (inactive)

Question: What about the GI50 (SF-295) of the same molecule?
Answer: > 100 µM (inactive)

Question: And the GI50 (SF-539)?
Answer: > 100 µM (inactive)

Question: And the GI50 (SK-MEL-28)?
Answer: > 100 µM (inactive)

Question: What about the GI50 (SK-MEL-2) of the same molecule?
Answer: > 100 µM (inactive)

Question: And the GI50 (SK-MEL-5)?
Answer: > 100 µM (inactive)

Question: What about the GI50 (SK-OV-3) of the same molecule?
Answer: > 100 µM (inactive)

Question: What about the GI50 (SN12C) of the same molecule?
Answer: > 100 µM (inactive)

Question: And the GI50 (SNB-19)?
Answer: > 100 µM (inactive)

Question: What about the GI50 (SNB-75) of the same molecule?
Answer: > 100 µM (inactive)

Question: And the GI50 (SW-620)?
Answer: > 100 µM (inactive)

Question: What about the GI50 (TK-10) of the same molecule?
Answer: > 100 µM (inactive)

Question: And the GI50 (U-251)?
Answer: > 100 µM (inactive)

Question: And the GI50 (UACC-257)?
Answer: > 100 µM (inactive)

Question: And the GI50 (UO-31)?
Answer: > 100 µM (inactive)

Question: For Cc1ccc(S(=O)(=O)OCCC2CN(C(=O)OCc3ccccc3)C(C)(C)O2)cc1 (stereo not given), which GI50 (786-0) is on record?
Answer: 11.6 µM (inactive)

Question: What about the GI50 (A498) of the same molecule?
Answer: > 100 µM (inactive)

Question: And the GI50 (A549)?
Answer: 9.59 µM (inactive)

Question: And the GI50 (ACHN)?
Answer: 12.9 µM (inactive)

Question: And the GI50 (BT-549)?
Answer: 1.89 µM (inactive)

Question: What about the GI50 (CAKI-1) of the same molecule?
Answer: 60.1 µM (inactive)

Question: And the GI50 (CCRF-CEM)?
Answer: 14.4 µM (inactive)

Question: What about the GI50 (COLO 205) of the same molecule?
Answer: 7.38 µM (inactive)

Question: And the GI50 (DU-145)?
Answer: 57.8 µM (inactive)

Question: What about the GI50 (EKVX) of the same molecule?
Answer: 18.3 µM (inactive)

Question: And the GI50 (HCC 2998)?
Answer: 6.07 µM (inactive)

Question: And the GI50 (HCT-116)?
Answer: 7.23 µM (inactive)

Question: And the GI50 (HCT-15)?
Answer: 3.66 µM

Question: And the GI50 (HL-60)?
Answer: 5.24 µM (inactive)

Question: What about the GI50 (HOP-92) of the same molecule?
Answer: 62.2 µM (inactive)

Question: And the GI50 (IGROV-1)?
Answer: 7.08 µM (inactive)

Question: What about the GI50 (K562) of the same molecule?
Answer: 8.63 µM (inactive)

Question: What about the GI50 (KM12) of the same molecule?
Answer: 2.75 µM (inactive)

Question: And the GI50 (LOX IMVI)?
Answer: 10.8 µM (inactive)

Question: What about the GI50 (M14) of the same molecule?
Answer: 7.38 µM (inactive)

Question: What about the GI50 (MCF7) of the same molecule?
Answer: 7.83 µM (inactive)

Question: What about the GI50 (MDA-MB-231) of the same molecule?
Answer: > 100 µM (inactive)

Question: And the GI50 (MDA-MB-435)?
Answer: 3.61 µM (inactive)

Question: What about the GI50 (MDA-N) of the same molecule?
Answer: 12.5 µM (inactive)

Question: What about the GI50 (MOLT-4) of the same molecule?
Answer: 2.81 µM (inactive)

Question: And the GI50 (Malme-3M)?
Answer: 8.2 µM (inactive)

Question: And the GI50 (NCI-H226)?
Answer: 0.106 µM (active)

Question: What about the GI50 (NCI-H23) of the same molecule?
Answer: 2.96 µM (inactive)

Question: And the GI50 (NCI-H460)?
Answer: 3.47 µM (inactive)

Question: What about the GI50 (NCI-H522) of the same molecule?
Answer: 2.7 µM (inactive)

Question: What about the GI50 (NCI/ADR-RES) of the same molecule?
Answer: 2.4 µM (inactive)

Question: What about the GI50 (OVCAR-3) of the same molecule?
Answer: 39.6 µM (inactive)

Question: And the GI50 (OVCAR-4)?
Answer: 6.68 µM (inactive)

Question: And the GI50 (OVCAR-5)?
Answer: > 100 µM (inactive)

Question: What about the GI50 (OVCAR-8) of the same molecule?
Answer: 4.2 µM (inactive)

Question: What about the GI50 (PC-3) of the same molecule?
Answer: 4.79 µM (inactive)

Question: What about the GI50 (RPMI-8226) of the same molecule?
Answer: 3.92 µM (inactive)

Question: What about the GI50 (RXF 393) of the same molecule?
Answer: 6.4 µM (inactive)

Question: What about the GI50 (SF-295) of the same molecule?
Answer: 13.5 µM (inactive)

Question: What about the GI50 (SF-539) of the same molecule?
Answer: 12.5 µM (inactive)

Question: What about the GI50 (SK-MEL-28) of the same molecule?
Answer: 11.4 µM (inactive)

Question: And the GI50 (SK-MEL-2)?
Answer: 17.7 µM (inactive)

Question: What about the GI50 (SK-MEL-5) of the same molecule?
Answer: 2.72 µM (inactive)

Question: What about the GI50 (SK-OV-3) of the same molecule?
Answer: > 100 µM (inactive)

Question: And the GI50 (SN12C)?
Answer: > 100 µM (inactive)

Question: What about the GI50 (SNB-19) of the same molecule?
Answer: 3.83 µM (inactive)

Question: What about the GI50 (SR) of the same molecule?
Answer: 4.47 µM (inactive)

Question: What about the GI50 (SW-620) of the same molecule?
Answer: 14.3 µM (inactive)

Question: And the GI50 (TK-10)?
Answer: 8.75 µM (inactive)

Question: And the GI50 (U-251)?
Answer: 16.7 µM (inactive)

Question: And the GI50 (UACC-257)?
Answer: 7.41 µM (inactive)

Question: And the GI50 (UACC-62)?
Answer: 10.2 µM (inactive)

Question: What about the GI50 (UO-31) of the same molecule?
Answer: 3.69 µM (inactive)
